Data: ChEMBL document CHEMBL1201862, “PubChem BioAssay data set” (2004)
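All cell lines were grown in 96-well plates and treated with compound for 48 hours. The concentration for 50% growth inhibition is given as GI50.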 The source made the active and inactive calls. Cut-off read from the data, not from the text of the source: active = GI50 up to about 1.1 µM and inactive = higher.

What was measured:
Assay in all cases: NCI anticancer screen, dose series, 48 h
[1] = test system: SNB-19
[2] = test system: DMS-114
[3] = test system: U-251
[4] = test system: CAKI-1
[5] = test system: SK-MEL-2
[6] = test system: SN12C
[7] = test system: RPMI-8226
[8] = test system: DMS-273
[9] = test system: LOX IMVI
[10] = test system: A498
[11] = test system: NCI-H522
[12] = test system: HCC 2998
[13] = test system: IGROV-1
[14] = test system: EKVX
[15] = test system: KM12
[16] = test system: SW-620
[17] = test system: HCT-116
[18] = test system: MCF7
[19] = test system: DU-145
[20] = test system: MDA-MB-435

Measured: GI50

O=c1[nH]ccc2c1ccn2C1CC(O)C(CO)O1 (stereo not drawn)
inactive: [1] > 100 µM | [2] > 100 µM | [3] > 100 µM | [4] > 100 µM | [5] > 100 µM | [6] > 100 µM | [7] > 100 µM | [8] > 100 µM | [9] > 100 µM | [10] > 100 µM | [11] > 100 µM | [12] > 100 µM | [13] > 100 µM | [14] > 100 µM | [15] > 100 µM | [16] > 100 µM | [17] > 100 µM

CC(=O)Nc1ccc(-c2nnc(SCC(=O)Nc3ccc(Cl)cc3Cl)o2)cc1
inactive: [1] 22.6 µM | [2] 15.7 µM | [3] 18 µM | [4] > 100 µM | [5] > 100 µM | [6] 20.2 µM | [8] 39.5 µM | [9] 27.8 µM | [10] 40.8 µM | [11] 20.7 µM | [12] > 100 µM | [13] 37.1 µM | [15] 65.9 µM | [16] 32.4 µM | [17] 40.5 µM

COC(OC)c1cc2c(cc1C(=O)[C@@]13CCC[C@@H]1NC(=O)O3)OCO2
inactive: [1] 91.2 µM | [2] > 100 µM | [3] > 100 µM | [4] > 100 µM | [5] > 100 µM | [6] > 100 µM | [8] > 100 µM | [10] > 100 µM | [11] > 100 µM | [13] 73.5 µM | [14] > 100 µM | [15] > 100 µM | [16] > 100 µM | [17] > 100 µM

Cn1nc2ccccc2cc1=O
inactive: [1] > 100 µM | [2] > 100 µM | [3] > 100 µM | [4] > 100 µM | [5] > 100 µM | [6] > 100 µM | [7] > 100 µM | [8] > 100 µM | [9] > 100 µM | [10] > 100 µM | [12] > 100 µM | [13] > 100 µM | [14] > 100 µM | [15] > 100 µM | [16] > 100 µM | [17] > 100 µM

c1ccc2[nH]c(CNc3ccc(C4C[Se]N=N4)cc3)nc2c1 (stereo not drawn)
inactive: [1] 84.1 µM | [2] 21.8 µM | [3] 55.8 µM | [4] > 100 µM | [5] 33 µM | [6] 86.9 µM | [7] 25.6 µM | [8] 67.1 µM | [9] 40.6 µM | [10] > 100 µM | [11] 29 µM | [12] > 100 µM | [13] > 100 µM | [15] 26.4 µM | [16] 95.7 µM | [17] 41.2 µM

O=C(O)CC[C@H](NC(=O)c1ccc(-n2nc3ccc(=O)cc-3[nH]c2=O)cc1)C(=O)O
inactive: [1] > 100 µM | [2] > 100 µM | [3] > 100 µM | [5] > 100 µM | [6] > 100 µM | [7] > 100 µM | [8] > 100 µM | [10] > 100 µM | [11] > 100 µM | [12] > 100 µM | [13] > 100 µM | [14] > 100 µM | [15] > 100 µM | [16] > 100 µM | [17] > 100 µM

O=C1C=C(Nc2ccccc2C(=O)CC(=O)C(=O)Nc2cccc([N+](=O)[O-])c2)c2ccccc2C1=O
inactive: [1] 23.3 µM | [2] 18.5 µM | [3] 32.4 µM | [4] > 100 µM | [5] 56 µM | [6] 23.4 µM | [7] 5.58 µM | [8] 31.1 µM | [9] 4.82 µM | [10] > 100 µM | [11] 21.8 µM | [12] > 100 µM | [13] 80.4 µM | [14] > 100 µM | [15] 36.7 µM | [16] 25.6 µM | [17] 20.7 µM

CCOc1ccc(NC(=O)CC2Sc3ccccc3NC2=O)cc1 (stereo not drawn)
inactive: [1] 54.1 µM | [2] > 100 µM | [3] 45 µM | [4] 89.9 µM | [6] > 100 µM | [7] 65.5 µM | [8] 33.4 µM | [10] > 100 µM | [11] > 100 µM | [12] 38.2 µM | [13] > 100 µM | [14] > 100 µM | [15] 28.3 µM | [16] 14.5 µM | [17] 25.2 µM

O=C1NCCS(=O)(=O)N[C@@H](CC2=CC=CCC2)C(=O)N2CCCC12 (stereo partly drawn)
inactive: [1] > 100 µM | [2] > 100 µM | [3] > 100 µM | [5] > 100 µM | [6] > 100 µM | [7] > 100 µM | [8] > 100 µM | [9] > 100 µM | [10] > 100 µM | [11] > 100 µM | [12] > 100 µM | [13] > 100 µM | [14] > 100 µM | [15] > 100 µM | [16] > 100 µM | [17] > 100 µM

Cc1nc(C(N)=S)sc1C(=O)/C=C/c1cccc(O)c1
inactive: [2] 68.1 µM | [3] > 100 µM | [4] > 100 µM | [5] > 100 µM | [6] > 100 µM | [7] 25.9 µM | [8] > 100 µM | [9] 45.2 µM | [10] > 100 µM | [11] 90.4 µM | [12] > 100 µM | [13] > 100 µM | [14] > 100 µM | [15] 32.4 µM | [16] 82.8 µM

CC1OC(n2cc(F)c(=O)[nH]c2=O)CCC1=O (stereo not drawn)
inactive: [1] > 100 µM | [2] > 100 µM | [3] > 100 µM | [4] > 100 µM | [5] > 100 µM | [6] > 100 µM | [7] 49.7 µM | [8] 62.5 µM | [9] 88.1 µM | [10] 30.4 µM | [11] > 100 µM | [12] 5.98 µM | [13] > 100 µM | [15] 92.9 µM | [16] > 100 µM | [17] 44.9 µM

N#CC(NNC(=O)Cc1ccccc1)c1c(O)ccc2ccccc12 (stereo not drawn)
inactive: [1] 9.79 µM | [18] 3.15 µM | [2] 2.08 µM | [3] 3.72 µM | [4] 4.91 µM | [5] 2.92 µM | [6] 7.93 µM | [7] 3.63 µM | [8] 3.68 µM | [9] 1.47 µM | [10] 30.3 µM | [19] 10.2 µM | [20] 10.4 µM | [11] 3.47 µM | [12] 14.3 µM | [13] 5.31 µM | [14] 5.56 µM | [15] 4.02 µM | [16] 6.98 µM | [17] 3.46 µM

CCOC(=O)c1cc(/C=C/C(C)=C/C(=O)OC)oc1-c1ccccc1
inactive: [1] 38.5 µM | [2] 63.5 µM | [3] 50 µM | [4] 55.8 µM | [5] > 100 µM | [6] 73.8 µM | [7] 31.6 µM | [8] 92.5 µM | [9] > 100 µM | [10] > 100 µM | [11] 39.7 µM | [12] > 100 µM | [13] 66.7 µM | [14] > 100 µM | [15] 48.4 µM | [16] > 100 µM | [17] 32.1 µM

CC#CC1C(OC(=O)c2ccccc2)CCCC1(CI)N=[N+]=[N-] (stereo not drawn)
inactive: [2] 25.1 µM | [3] 59.7 µM | [4] > 100 µM | [5] 75 µM | [6] > 100 µM | [7] 18.5 µM | [8] 38.7 µM | [10] > 100 µM | [11] 22.4 µM | [12] 90.2 µM | [13] > 100 µM | [14] 55.1 µM | [15] 89.7 µM | [16] > 100 µM | [17] 32.8 µM

N#CC1=C(c2ccccc2)NN(Cc2ccccc2)C(c2ccc(Cl)cc2)CC1=O (stereo not drawn)
inactive: [1] 22.5 µM | [2] 32.3 µM | [3] 17.3 µM | [4] 30.1 µM | [5] 25.8 µM | [7] 18.8 µM | [8] 21.4 µM | [9] 18 µM | [10] 24.8 µM | [11] 12.7 µM | [15] 25.8 µM | [16] 20.2 µM | [17] 18.7 µM

CC1(C)COC2(OC1)C1=NS(=O)(=O)CC13CCC2C3(C)C (stereo not drawn)
inactive: [1] > 100 µM | [2] > 100 µM | [3] > 100 µM | [4] > 100 µM | [5] > 100 µM | [6] > 100 µM | [7] > 100 µM | [8] > 100 µM | [9] > 100 µM | [10] > 100 µM | [11] > 100 µM | [13] > 100 µM | [14] > 100 µM | [15] > 100 µM | [16] > 100 µM | [17] > 100 µM

CN(C)C(=Nc1nc(N(C)C)s[s+]1)N(C)C
inactive: [1] > 100 µM | [2] > 100 µM | [3] > 100 µM | [4] > 100 µM | [5] > 100 µM | [6] > 100 µM | [7] > 100 µM | [8] > 100 µM | [10] > 100 µM | [11] > 100 µM | [12] > 100 µM | [13] > 100 µM | [14] > 100 µM | [15] > 100 µM | [16] > 100 µM
